Measurements taken from ChEMBL document CHEMBL1124619, “Phencyclidine-like effects of tetrahydroisoquinolines and related compounds” (J Med Chem, 1989).

Columns and labels:
[1] = molecular target: T1, Glutamate receptor ionotropic, NMDA 2C (Rattus norvegicus, UniProt Q00961); assay: Inhibition of [3H]1-[1-(2-thienyl) piperidine ([3H]TCP) binding to PCP receptor; NI = No detectable inhibition of binding at 30 uM
[2] = molecular target: T2, Sigma non-opioid intracellular receptor 1 (Rattus norvegicus, UniProt Q9R0C9); assay: Inhibition of [3H]- N-allylnormetazocine ([3H]NANM) binding to sigma receptor
Rattus norvegicus [3] = organism: Rattus norvegicus; assay: (§1) Compound was tested for induction of phencyclidine (PCP) like ataxia behavior; assay type: functional
Rattus norvegicus [4] = organism: Rattus norvegicus; assay: (§2) Compound was tested for induction of phencyclidine (PCP) like stereotyped behavior; assay type: functional
[5] = molecular target: T1, Glutamate receptor ionotropic, NMDA 2C; assay: Inhibition of [3H]1-[1-(2-thienyl) piperidine ([3H]TCP) binding to PCP receptor
[6] = molecular target: Glutamate receptor ionotropic, NMDA 2C (Rattus norvegicus) (UniProt Q00961); assay: as §1; assay type: functional
[7] = molecular target: Glutamate receptor ionotropic, NMDA 2C (Rattus norvegicus) (UniProt Q00961); assay: as §2; assay type: functional
[8] = molecular target: T1, Glutamate receptor ionotropic, NMDA 2C; assay: Inhibition of [3H]1-[1-(2-thienyl) piperidine ([3H]TCP) binding to phencyclidine receptor; NI = No detectable inhibition of binding at 30 uM
[9] = molecular target: T2, Sigma non-opioid intracellular receptor 1; assay: Inhibition of [3H]- N-allylnormetazocine ([3H]-NANM) binding to sigma receptors; NI = No detectable inhibition of binding at 30 uM

T2 sequence (Q9R0C9 whole entry): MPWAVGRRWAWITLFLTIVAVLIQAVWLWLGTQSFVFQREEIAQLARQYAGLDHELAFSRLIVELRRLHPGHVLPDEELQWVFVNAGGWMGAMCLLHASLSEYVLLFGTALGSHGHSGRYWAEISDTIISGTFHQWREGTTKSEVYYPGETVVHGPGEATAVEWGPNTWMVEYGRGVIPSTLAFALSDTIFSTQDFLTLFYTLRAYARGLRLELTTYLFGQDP
T1 sequence (Q00961 whole entry): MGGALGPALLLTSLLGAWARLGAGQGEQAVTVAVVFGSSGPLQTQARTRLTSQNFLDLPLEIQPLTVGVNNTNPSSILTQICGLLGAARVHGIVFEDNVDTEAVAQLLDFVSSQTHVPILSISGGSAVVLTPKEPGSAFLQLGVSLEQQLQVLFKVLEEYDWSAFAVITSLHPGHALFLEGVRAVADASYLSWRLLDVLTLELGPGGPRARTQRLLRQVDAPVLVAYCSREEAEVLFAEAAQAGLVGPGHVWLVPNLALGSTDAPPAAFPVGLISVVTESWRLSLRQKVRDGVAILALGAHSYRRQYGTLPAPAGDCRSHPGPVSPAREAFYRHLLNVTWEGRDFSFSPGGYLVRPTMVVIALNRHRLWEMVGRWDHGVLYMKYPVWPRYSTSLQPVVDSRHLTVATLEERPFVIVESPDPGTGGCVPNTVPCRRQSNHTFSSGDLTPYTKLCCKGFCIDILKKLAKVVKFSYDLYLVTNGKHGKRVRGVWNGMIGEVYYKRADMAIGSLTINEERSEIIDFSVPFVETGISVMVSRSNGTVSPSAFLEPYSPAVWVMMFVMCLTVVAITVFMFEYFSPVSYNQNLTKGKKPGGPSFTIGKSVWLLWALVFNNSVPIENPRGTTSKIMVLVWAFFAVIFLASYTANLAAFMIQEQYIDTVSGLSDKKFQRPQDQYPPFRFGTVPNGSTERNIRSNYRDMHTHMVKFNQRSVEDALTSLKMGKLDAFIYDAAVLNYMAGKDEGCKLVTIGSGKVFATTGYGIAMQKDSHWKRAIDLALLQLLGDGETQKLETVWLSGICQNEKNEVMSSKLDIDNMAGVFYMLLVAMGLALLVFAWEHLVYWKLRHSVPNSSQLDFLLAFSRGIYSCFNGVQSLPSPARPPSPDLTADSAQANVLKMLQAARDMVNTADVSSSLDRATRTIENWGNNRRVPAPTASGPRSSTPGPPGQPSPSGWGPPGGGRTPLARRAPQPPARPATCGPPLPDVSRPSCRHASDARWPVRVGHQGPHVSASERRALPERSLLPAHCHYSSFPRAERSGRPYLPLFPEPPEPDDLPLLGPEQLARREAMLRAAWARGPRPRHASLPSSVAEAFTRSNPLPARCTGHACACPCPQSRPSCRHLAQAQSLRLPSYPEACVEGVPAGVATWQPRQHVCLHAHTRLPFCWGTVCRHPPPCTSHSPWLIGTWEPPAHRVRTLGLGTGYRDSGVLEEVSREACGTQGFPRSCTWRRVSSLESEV
Sequence of Glutamate receptor ionotropic, NMDA 2C (Rattus norvegicus) (Q00961 20-1237 limits assumed): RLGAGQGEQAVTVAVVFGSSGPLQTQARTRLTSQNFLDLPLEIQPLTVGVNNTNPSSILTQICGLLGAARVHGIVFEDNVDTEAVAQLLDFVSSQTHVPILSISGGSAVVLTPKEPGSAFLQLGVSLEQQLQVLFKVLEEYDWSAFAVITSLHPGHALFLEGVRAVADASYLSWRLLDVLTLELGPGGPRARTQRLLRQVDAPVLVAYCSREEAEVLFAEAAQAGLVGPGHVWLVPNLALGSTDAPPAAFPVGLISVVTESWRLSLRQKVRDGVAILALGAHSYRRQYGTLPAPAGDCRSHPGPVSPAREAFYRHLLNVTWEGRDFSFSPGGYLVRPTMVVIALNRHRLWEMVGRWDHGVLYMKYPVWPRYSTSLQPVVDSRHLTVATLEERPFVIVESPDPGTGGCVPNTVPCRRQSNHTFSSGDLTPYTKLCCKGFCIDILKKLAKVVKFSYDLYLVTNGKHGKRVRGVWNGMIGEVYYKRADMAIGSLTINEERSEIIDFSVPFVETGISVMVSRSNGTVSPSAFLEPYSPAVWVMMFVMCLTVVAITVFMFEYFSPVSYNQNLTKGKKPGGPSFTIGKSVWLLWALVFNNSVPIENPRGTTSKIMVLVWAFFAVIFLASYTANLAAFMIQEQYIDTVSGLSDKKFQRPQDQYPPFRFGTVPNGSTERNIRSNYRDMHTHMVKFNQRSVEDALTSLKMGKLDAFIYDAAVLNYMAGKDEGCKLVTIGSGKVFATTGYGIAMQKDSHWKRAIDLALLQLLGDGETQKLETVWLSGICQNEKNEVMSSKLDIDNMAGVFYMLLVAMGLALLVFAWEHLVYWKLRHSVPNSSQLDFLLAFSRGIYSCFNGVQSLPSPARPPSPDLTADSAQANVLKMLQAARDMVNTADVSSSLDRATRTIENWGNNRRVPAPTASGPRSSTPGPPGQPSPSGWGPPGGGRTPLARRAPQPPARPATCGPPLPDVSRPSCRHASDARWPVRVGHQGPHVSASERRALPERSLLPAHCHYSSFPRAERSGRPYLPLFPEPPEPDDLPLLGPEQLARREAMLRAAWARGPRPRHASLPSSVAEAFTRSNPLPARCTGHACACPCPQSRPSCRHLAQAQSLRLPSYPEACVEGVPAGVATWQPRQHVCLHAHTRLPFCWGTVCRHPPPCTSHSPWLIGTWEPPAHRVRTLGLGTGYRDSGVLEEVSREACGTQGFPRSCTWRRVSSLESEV

## C=CCN1CCc2ccsc2C1c1ccccc1 (stereo unspecified)
[1]
  IC50: Not Active
[2]
  IC50: 20 µM

## Cc1ccc(C2NCCc3ccccc32)cc1 (stereo unspecified)
[2]
  IC50: 5.6 µM

## c1ccc(C2NCCc3ccsc32)cc1 (stereo unspecified)
Rattus norvegicus [3]
  ED50: > 50 mg/kg
Rattus norvegicus [4]
  ED50: > 50 mg/kg
[2]
  IC50: 6.3 µM
[5]
  IC50: 8.8 µM

## CC(C)CC1NCCc2ccccc21 (stereo unspecified)
[2]
  IC50: 5 µM

## CC1Cc2ccccc2CN1C (stereo unspecified)
[2]
  IC50: 2.6 µM

## CC1Cc2ccccc2C(C)N1 (stereo unspecified)
[2]
  IC50: 15 µM

## c1ccc(CC2NCCc3ccccc32)cc1 (stereo unspecified)
[6]
  ED50: 42 mg/kg
[2]
  IC50: 0.43 µM
[7]
  ED50: 26 mg/kg

## CC1Cc2ccccc2CN1Cc1ccccc1 (stereo unspecified)
[2]
  IC50: 3.2 µM

## CCOCCN1CCc2ccccc2C1c1ccccc1 (stereo unspecified)
[2]
  IC50: 5.4 µM
[5]
  IC50: 8.2 µM

## c1ccc2c(c1)CCNC2c1ccc2ccccc2c1 (stereo unspecified)
[2]
  IC50: 10 µM

## CC(C)C1NCCc2ccccc21 (stereo unspecified)
[2]
  IC50: 2.5 µM

## c1ccc(CN2CCc3ccccc3C2)cc1
[8]
  IC50: Not Active
[2]
  IC50: 7.8 µM

## CN1CCc2ccccc2C1c1ccccc1 (stereo unspecified)
[2]
  IC50: 2.9 µM

## c1ccc2c(c1)CCNC2C1CCCCC1 (stereo unspecified)
[2]
  IC50: 11 µM

## C=CCN1CCc2ccccc2C1c1ccc2ccccc2c1 (stereo unspecified)
[8]
  IC50: Not Active
[2]
  IC50: 11 µM

## c1ccc(-c2cccc3c2CNCC3)cc1
[6]
  ED50: 44 mg/kg
[2]
  IC50: 2.7 µM
[7]
  ED50: 28 mg/kg

## Clc1ccc(C2NCCc3ccccc32)cc1 (stereo unspecified)
[2]
  IC50: 3.4 µM

## CCN1CCc2ccccc2C1c1ccccc1 (stereo unspecified)
[2]
  IC50: 1.3 µM

## C=CCN1CCc2ccccc2C1C1CCCCC1 (stereo unspecified)
[2]
  IC50: 3.1 µM

## c1csc(C2(N3CCCCC3)CCCCC2)c1 [TENOCYCLIDINE]
[2]
  IC50: 0.24 µM

## C=CCN1C(C)Cc2ccccc2C1C (stereo unspecified)
[2]
  IC50: 1.6 µM

## CN1CCc2ccccc2C1
[2]
  IC50: 2.7 µM

## Fc1ccc(C2NCCc3ccccc32)cc1 (stereo unspecified)
[6]
  ED50: 49 mg/kg
[2]
  IC50: 1.8 µM
[7]
  ED50: 38 mg/kg

## c1ccc(C2Cc3ccccc3CN2)cc1 (stereo unspecified)
[6]
  ED50: 18 mg/kg
[2]
  IC50: 2.6 µM
[7]
  ED50: 19 mg/kg

## c1ccc(C2NCc3ccccc32)cc1 (stereo unspecified)
[2]
  IC50: > 30 µM

## CC(C)C1c2sccc2CCN1C (stereo unspecified)
[2]
  IC50: 7.8 µM
[5]
  IC50: 17 µM

## COc1ccccc1-c1cccc2c1CNCC2
Rattus norvegicus [3]
  ED50: 22 mg/kg
Rattus norvegicus [4]
  ED50: 20 mg/kg
[2]
  IC50: 1.8 µM
[5]
  IC50: 0.9 µM

## COc1ccc(C2NCCc3ccccc32)cc1 (stereo unspecified)
[2]
  IC50: 2.2 µM
[5]
  IC50: 2.5 µM

## CC1NCCc2ccsc21 (stereo unspecified)
[2]
  IC50: 11 µM
[5]
  IC50: > 30 µM

## C=CCN1CCc2ccccc2C1c1ccccc1 (stereo unspecified)
[2]
  IC50: 1.3 µM

## c1ccc(C2(N3CCCCC3)CCCCC2)cc1 [PHENCYCLIDINE]
[6]
  ED50: 6.5 mg/kg
[2]
  IC50: 0.53 µM
[7]
  ED50: 4.7 mg/kg

## CC(C)C1NCCc2ccsc21 (stereo unspecified)
[2]
  IC50: 3.8 µM
[5]
  IC50: 17 µM

## c1ccc(C2NCCCc3ccccc32)cc1 (stereo unspecified)
[9]
  IC50: Not Active
[8]
  IC50: Not Active

## CCN1CCc2ccsc2C1C(C)C (stereo unspecified)
[9]
  IC50: Not Active
[5]
  IC50: 12 µM

## C=CCN1CC[C@]2(C)c3ccccc3CC1[C@@H]2C
[2]
  IC50: 0.05 µM

## c1csc(C2NCCc3ccccc32)c1 (stereo unspecified)
Rattus norvegicus [4]
  ED50: 54 mg/kg
[2]
  IC50: 3.8 µM
[5]
  IC50: 7.6 µM

## c1ccc(C2CNCc3ccccc32)cc1 (stereo unspecified)
[2]
  IC50: 4.2 µM

## c1ccc2c(c1)CCNC21CCCCC1
[9]
  IC50: Not Active
[8]
  IC50: Not Active

## C=CCN1CCc2ccsc2C1C(C)C (stereo unspecified)
[2]
  IC50: 5 µM
[5]
  IC50: 8.5 µM

## c1ccc(C2NCCc3ccccc32)cc1 (stereo unspecified)
[6]
  ED50: > 20 mg/kg
[7]
  ED50: 25 mg/kg
